Measurements published in patent publication US20260216216A1, “(N-ALKYLDIHYDROL-2H-OXAZINYL)-CANNABIDIOL AS ANTI-PROLIFERATIVE AGENT AND PROCESS FOR PREPARATION THEREOF” (COUNCIL OF SCIENTIFIC AND INDUSTRIAL RESEARCH, priority 2022, published 2026).
Like-named read-outs stand apart in the source and are kept apart here.

What was measured:
[1] = tested on: HCT-116 (colorectal cancer) cell line; experiment: SRB in-vitro cytotoxicity assay, HCT-116; settings: Homo sapiens
Procedure: (§1) All the ring annulated analogues of cannabinoid were evaluated for their cytotoxicity against number of human cancer cell lines. To evaluate the in-vitro cytotoxicity, a sulphorhodamine B (SRB) assay was carried out. SRB is a negatively charged pink aminoxanthine dye that binds to the basic amino acid of cells in mildly acidic conditions and is removed in basic conditions. […] When cells reached 60-70% confluency, trypsinized and seeded in 96 well plates according to their inoculation density and incubated for 24 hours to attain their proper morphology. Next-day cells were again incubated for 48 hours with test compounds or paclitaxel (positive control). Next, cells were fixed with 50% of ice-cold TCA for 1 hours, washed with distilled water, and kept for air drying. Air-dried plates were then stained with 0.4% SRB dye for 30 minutes and subsequently with water and 1% v/v glacial acetic acid were then kept for air drying. […] The viability of cells is measured based on bound dye after fixation, which is measured by absorbance at 540 nm.

[2] = tested on: MCF-7 (breast cancer) cell line; experiment: SRB in-vitro cytotoxicity assay, MCF-7; settings: Homo sapiens
Procedure: as §1

[3] = tested on: A549 (lung cancer) cell line; experiment: SRB in-vitro cytotoxicity assay, A549; settings: Homo sapiens
Procedure: as §1

[4] = tested on: PC-3 (prostate cancer) cell line; experiment: SRB in-vitro cytotoxicity assay, PC-3; settings: Homo sapiens
Procedure: as §1

[5] = tested on: U251 (glioblastoma) cell line; experiment: SRB in-vitro cytotoxicity assay, U251; settings: Homo sapiens
Procedure: as §1

[6] = tested on: Mia-PaCa (pancreatic cancer) cell line; experiment: SRB in-vitro cytotoxicity assay, Mia-PaCa; settings: Homo sapiens
Procedure: as §1

[7] = in vitro; settings: human
Procedure: as §1

[8] = tested on: HEK-293 (normal cell lines); experiment: SRB in-vitro cytotoxicity assay, HEK-293; settings: Homo sapiens, HEK293, read-out: inhibition against HEK-293 cell lines
Procedure: as §1

[9] = HCT-116, 48 h, read-out: Cytotoxicity (in vitro cell inhibition) HCT-116
[10] = HCT-116, read-out: inhibition against HCT-116 cell lines
[11] = MCF7, 48 h, read-out: Cytotoxicity (in vitro cell inhibition) MCF-7
[12] = MCF7, read-out: inhibition against MCF-7 cell lines
[13] = A549, 48 h, read-out: Cytotoxicity (in vitro cell inhibition) A549
[14] = A549, read-out: inhibition against A549 cell lines
[15] = 48 h, read-out: Cytotoxicity (in vitro cell inhibition) PC3
[16] = PC-3, read-out: inhibition against PC3 cell lines
[17] = U-251, 48 h, read-out: Cytotoxicity (in vitro cell inhibition) U251
[18] = MIA PaCa-2, 48 h, read-out: Cytotoxicity (in vitro cell inhibition) Mia-PaCa
[19] = MIA PaCa-2, read-out: inhibition against Mia-PaCa cell lines
[20] = U-251, read-out: inhibition against U251 cell lines

SMILES	inhibition at 20 µM [1, 9] [%]	inhibition at 20 µM [1, 10] [%]	inhibition at 20 µM [2, 11] [%]	inhibition at 20 µM [2, 12] [%]	inhibition at 20 µM [3, 13] [%]	inhibition at 20 µM [3, 14] [%]	inhibition at 20 µM [4, 15] [%]	inhibition at 20 µM [4, 16] [%]	inhibition at 20 µM [5, 17] [%]	inhibition at 20 µM [6, 18] [%]	inhibition at 20 µM [6, 19] [%]	inhibition at 20 µM [5, 20] [%]	inhibition at 20 µM [7] [%]	inhibition at 48 h, 20 µM [7] [%]	also measured
C=C(C)[C@@H]1CCC(C)=C[C@H]1c1c(O)cc(CCCCC)cc1O [IIa, cannabidiol]	> 70	> 70	50 to 70	> 50	> 70	> 70	50 to 70	> 50	< 50						
C=C(C)[C@@H]1CCC(C)=C[C@H]1c1c(O)cc(CCCCC)c2c1OCN(C)C2 [Ia, (N-methyldihydrol-2H-oxazinyl)-cannabidiol]	50 to 70	> 50	> 70	> 70	> 70	> 70	> 70	> 70	> 70	> 70	> 70	> 70	> 70		inhibition at 20 µM [8]: > 70%
C=C(C)[C@@H]1CCC(C)=C[C@H]1c1c(O)cc(CCCCC)c2c1OCN(CC)C2 [Ib, (N-ethyldihydrol-2H-oxazinyl)-cannabidiol]	50 to 70	> 50	> 70	> 70	> 70	> 70	> 70	> 70	50 to 70	> 70	> 70	> 50	50 to 70		inhibition at 20 µM [8]: > 50%
C=C(C)[C@@H]1CCC(C)=C[C@H]1c1c(O)cc(CCCCC)c2c1OCN(CCC)C2 [Ic, (N-propyldihydrol-2H-oxazinyl)-cannabidiol]	50 to 70	> 50	> 70	> 70	50 to 70	> 50	50 to 70	> 50	50 to 70	> 70	> 70	> 50	< 50		
C=C(C)[C@@H]1CCC(C)=C[C@H]1c1c(O)cc(CCCCC)c2c1OCN(CCCC)C2 [Id, (N-butyldihydrol-2H-oxazinyl)-cannabidiol]	> 70	> 70	> 70	> 70	> 70	> 70	> 70	> 70	50 to 70	> 70	> 70	> 50	< 50		IC50 ([1]; HCT-116, read-out: IC50 against HCT-116): 4.1 µM; IC50 ([2]; MCF7, read-out: IC50 against MCF-7): 2.89 µM; IC50 ([3]; A549, read-out: IC50 against A549): 9.36 µM; IC50 ([6]; MIA PaCa-2, read-out: IC50 against Mia-PaCa-2): 11.5 µM; IC50 ([4]; read-out: IC50 against PC-3): 4.2 µM; IC50 ([5]; U-251, read-out: IC50 against U251): 17.4 µM
C=C(C)[C@@H]1CCC(C)=C[C@H]1c1c(O)cc(CCCCC)c2c1OCN(CCCCCC)C2 [Ie, (N-hexyldihydrol-2H-oxazinyl)-cannabidiol]	> 70	> 70	> 70	> 70	< 50		< 50		< 50	< 50				< 50	
C=C(C)[C@@H]1CCC(C)=C[C@H]1c1c(O)cc(CCCCC)c2c1OCN(CCCN1CCOCC1)C2 [If, (N-morpholinopropyldihydrol-2H-oxazinyl)-cannabidiol]	50 to 70	> 50	> 70	> 70	> 70	> 70	> 70	> 70	> 70	> 70	> 70	> 70		50 to 70	inhibition at 20 µM [8]: > 50%
C=C(C)[C@@H]1CCC(C)=C[C@H]1c1c(O)cc(CCCCC)c2c1OCN(C1CC1)C2 [Ig, (N-cyclopropyldihydrol-2H-oxazinyl)-cannabidiol]	50 to 70	> 50	50 to 70	> 50	50 to 70	> 50	50 to 70	> 50	< 50	< 50			< 50		
C=C(C)[C@@H]1CCC(C)=C[C@H]1c1c(O)cc(CCCCC)c2c1OCN(C1CCC1)C2 [Ih, (N-cyclobutyldihydrol-2H-oxazinyl)-cannabidiol]	50 to 70	> 50	> 70	> 70	50 to 70	> 50	> 70	> 70	50 to 70	> 70	> 70	> 50	50 to 70		inhibition at 20 µM [8]: > 50%
C=C(C)[C@@H]1CCC(C)=C[C@H]1c1c(O)cc(CCCCC)c2c1OCN(C1CCCCCC1)C2 [Ii, (N-cycloheptyldihydrol-2H-oxazinyl)-cannabidiol]	50 to 70	> 50	> 70	> 70	> 70	> 70	50 to 70	> 50	< 50	> 70	> 70			< 50	
C=C(C)[C@@H]1CCC(C)=C[C@H]1c1c(O)cc(CCCCC)c2c1OCN(c1ccccc1)C2 [Ij, (N-phenyldihydrol-2H-oxazinyl)-cannabidiol]	< 50		< 50		< 50		< 50		< 50	< 50				< 50	
C=C(C)[C@@H]1CCC(C)=C[C@H]1c1c(O)cc(CCCCC)c2c1OCN(c1ccc(C(C)C)cc1)C2 [Ik, (N-isopropylphenyldihydrol-2H-oxazinyl)-cannabidiol]	< 50		< 50		< 50		< 50		< 50	< 50				< 50	
C=C(C)[C@@H]1CCC(C)=C[C@H]1c1c(O)cc(CCCCC)c2c1OCN(c1ccc(OC(F)(F)F)cc1)C2 [Il, (N-trifluoromethoxyphenyldihydrol-2H-oxazinyl)-cannabidiol]	< 50		< 50		< 50		< 50		< 50	< 50				< 50	
C=C(C)[C@@H]1CCC(C)=C[C@H]1c1c(O)cc(CCCCC)c2c1OCN(c1cnc3ccccc3c1)C2 [Im, (N-quinolinedihydrol-2H-oxazinyl)-cannabidiol]	< 50		< 50		< 50		< 50		< 50	< 50				< 50	
C=C(C)[C@@H]1CCC(C)=C[C@H]1c1c(O)cc(CCCCC)c2c1OCN(Cc1ccccc1)C2 [In, (N-benzyldihydrol-2H-oxazinyl)-cannabidiol]		> 50	< 50			> 50		> 50	< 50	< 50				< 50	
C=C(C)[C@@H]1CCC(C)=C[C@H]1c1c(O)cc(CCCCC)c2c1OCN(c1ccccc1F)C2 [Io, (N-2-fluorophenyldihydrol-2H-oxazinyl)-cannabidiol]	< 50		< 50		< 50		< 50		< 50	< 50				< 50	
